Experimental data taken from US6815546B2, “Analogues of camptothecin, their use as medicaments and the pharmaceutical compositions containing them” (Societe de Recherches et d'Applications Scientifiques …, priority 1995, dated 2004).

Columns and labels:
Type in all cases: cell-based
[1] = system: L1210 (mouse lymphocytic leukemia); test: Test on cell proliferation (MTT test), L1210; conditions: 48 hours
Experimental: (§1) a. Eight tumoral cell lines are used in this study: L1210 (mouse lymphocytic leukemia), HCT15 and LOVO (cell lines of human colon adenocarcinoma), A549 (human lung carcinoma), A172, U373 et U87 (human glioblastoma). All these lines are obtained from the American Type Culture Collection (ATCC), Rockville, Md. The L1210 cell cultures in suspension are cultured in Dulbecco's modified Eagle's medium (DMEM) (BioWhitaker, Verviers, Belgium) together with 10% of foetal calf serum inactivated by heating, 2 mM of glutamine, 50 μg/ml of penicillin and 50 μg/ml of streptomycin. The HT29 cells are cultured in mono-layer cultures in a McCoy 5a medium (Gibco, Paisley, United Kingdom) together with 10% of foetal calf serum inactivated by heat plus 2 mM of glutamine and 50 μg/ml of gentamycin. The other cells are cultured in an Earle's modified essential medium (EMEM; Gibco, Paisley, United Kingdom) together with 5% foetal calf serum inactivated by heat, 2 mM of glutamine, 50 U/ml of penicillin and 50 μg/ml of streptomycin. All the cell lines are cultured at 37° C. in a humidified atmosphere containing 95% air and 5% CO2.
(§2) Inhibition of the tumor cell line proliferation is determined using an MTT test. 1500 L1210 cells in a culture medium (according to the needs of the cell medium) are seeded in a well of a micro-well plate (tissue culture level: 96 wells, flat bottom) 24 hours before treatment with the compounds to be tested. For these dose-response studies, the cells are incubated with each of the compounds to be tested or their corresponding solvent (controls) for 48 hours over a final concentration range of 1.10^−10 to 1.10^−4 M. All the compounds are dissolved just before use in dimethylsulphoxide (DMSO) at a concentration of 50 mM. Other dilutions of the medicaments are carried out in the culture medium. The final concentration of DMSO never exceeds 0.2% (v/v). As controls, the solutions of medicaments are replaced with the solvent which is diluted successively in the same way as the compounds to be tested.
(§3) After the incubation period, the labeling reagent MTT (3-[4,5-dimethylthiazol-2-yl]-2,5-diphenyltetrazolium bromide; Thiazol blue, Sigma M 565, Sigma, St Louis, Mo.) is added at a final concentration of 0.3 mg/ml to each well. The cells are incubated for 4 hours at 37° C. in a humidified atmosphere. This stage allows the mitochondrial dehydrogenase of the living cells to convert the yellow tetrazolium salt MTT into crimson formazan crystals. The supernatant part is eliminated and the formazan crystals formed are solubilized with DMSO. The resultant coloured solution is quantified by absorbance at 570 nm by using a multi-cuvette scanning spectrophotometer. The data concerning the proliferation is expressed as a percentage of living cells in the treated wells, divided by the living cells in the controls. Each point represents the average of three independent experiments, each experiment represents six determinations.
(§4) The results are expressed as percentages of the calculated proliferation by the optical density (OD) of the cells treated with a medicament divided by the OD of the control cells (cells treated with DMSO). As represented in Table II, the compounds to be tested have inhibited the proliferation of cells in a dose-dependent manner.

[2] = system: U373 (human glioblastoma); test: Test on cell proliferation (MTT test), U373; conditions: 72 hours
Experimental: as §1, §2, §3
(§5) For the other cell lines (HCT15, LOVO, A549, A172, U373, U87), 1000 to 2000 cells are seeded in the well of a micro-well plate 24 hours before medicinal treatment. […]
as §4

[3] = system: A549 (human lung carcinoma); test: Test on cell proliferation (MTT test), A549; conditions: 72 hours
Experimental: as §1, §2, §3, §5, §4

[4] = system: LOVO (cell lines of human colon adenocarcinoma); test: Test on cell proliferation (MTT test), LOVO; conditions: 72 hours
Experimental: as §1, §2, §3, §5, §4

[5] = system: A172 (human glioblastoma); test: Test on cell proliferation (MTT test), A172; conditions: 72 hours
Experimental: as §1, §2, §3, §5, §4

U87 (human glioblastoma) = test: Test on cell proliferation (MTT test), U87; conditions: 72 hours
Experimental: as §1, §2, §3, §5, §4

[6] = system: HCT15 (cell lines of human colon adenocarcinoma); test: Test on cell proliferation (MTT test), HCT15; conditions: 72 hours
Experimental: as §1, §2, §3, §5, §4

CCc1c2c(nc3ccccc13)-c1cc3c(c(=O)n1C2)COC(=O)CC3(O)CC (stereo not shown) [Example 9, 5,12-diethyl-5-hydroxy-1,4,5,13-tetrahydro-3H,15H-oxepino[3′,4′:6,7]indolizino[1,2-b]quinoline-3,15-dione]
PERCENTAGE OF CELL PROLIFERATION ([1]; 0.1 nM): 74.04% | PERCENTAGE OF CELL PROLIFERATION ([1]; 1 nM): 62.05% | PERCENTAGE OF CELL PROLIFERATION ([1]; 10 nM): 44.72% | PERCENTAGE OF CELL PROLIFERATION ([1]; 100 nM): 34.01% | PERCENTAGE OF CELL PROLIFERATION ([1]; 1 000 nM): 20.20% | PERCENTAGE OF CELL PROLIFERATION ([1]; 10 000 nM): 4.34% | PERCENTAGE OF CELL PROLIFERATION ([1]; 100 000 nM): 1.58% | PERCENTAGE OF CELL PROLIFERATION ([2]; 0.1 nM): 89.00% | PERCENTAGE OF CELL PROLIFERATION ([2]; 1 nM): 69.00% | PERCENTAGE OF CELL PROLIFERATION ([2]; 10 nM): 24.00% | PERCENTAGE OF CELL PROLIFERATION ([2]; 100 nM): 18.00% | PERCENTAGE OF CELL PROLIFERATION ([2]; 1 000 nM): 8.00% | PERCENTAGE OF CELL PROLIFERATION ([2]; 10 000 nM): 3.00% | PERCENTAGE OF CELL PROLIFERATION ([2]; 100 000 nM): 1.00% | PERCENTAGE OF CELL PROLIFERATION ([3]; 0.1 nM): 91.00% | PERCENTAGE OF CELL PROLIFERATION ([3]; 1 nM): 88.00% | PERCENTAGE OF CELL PROLIFERATION ([3]; 10 nM): 50.00% | PERCENTAGE OF CELL PROLIFERATION ([3]; 100 nM): 31.00% | PERCENTAGE OF CELL PROLIFERATION ([3]; 1 000 nM): 23.00% | PERCENTAGE OF CELL PROLIFERATION ([3]; 10 000 nM): 5.00% | PERCENTAGE OF CELL PROLIFERATION ([3]; 100 000 nM): 3.00% | PERCENTAGE OF CELL PROLIFERATION ([4]; 0.1 nM): 74.00% | PERCENTAGE OF CELL PROLIFERATION ([4]; 1 nM): 85.00% | PERCENTAGE OF CELL PROLIFERATION ([4]; 10 nM): 44.00% | PERCENTAGE OF CELL PROLIFERATION ([4]; 100 nM): 31.00% | PERCENTAGE OF CELL PROLIFERATION ([4]; 1 000 nM): 21.00% | PERCENTAGE OF CELL PROLIFERATION ([4]; 10 000 nM): 4.00% | PERCENTAGE OF CELL PROLIFERATION ([4]; 100 000 nM): 2.00% | PERCENTAGE OF CELL PROLIFERATION ([5]; 0.1 nM): 97.00% | PERCENTAGE OF CELL PROLIFERATION ([5]; 1 nM): 89.00% | PERCENTAGE OF CELL PROLIFERATION ([5]; 10 nM): 44.00% | PERCENTAGE OF CELL PROLIFERATION ([5]; 100 nM): 36.00% | PERCENTAGE OF CELL PROLIFERATION ([5]; 1 000 nM): 19.00% | PERCENTAGE OF CELL PROLIFERATION ([5]; 10 000 nM): 3.00% | PERCENTAGE OF CELL PROLIFERATION ([5]; 100 000 nM): 1.00% | PERCENTAGE OF CELL PROLIFERATION (U87 (human glioblastoma); 0.1 nM): 105.00% | PERCENTAGE OF CELL PROLIFERATION (U87 (human glioblastoma); 1 nM): 72.00% | PERCENTAGE OF CELL PROLIFERATION (U87 (human glioblastoma); 10 nM): 14.00% | PERCENTAGE OF CELL PROLIFERATION (U87 (human glioblastoma); 100 nM): 7.00% | PERCENTAGE OF CELL PROLIFERATION (U87 (human glioblastoma); 1 000 nM): 4.00% | PERCENTAGE OF CELL PROLIFERATION (U87 (human glioblastoma); 10 000 nM): 2.00% | PERCENTAGE OF CELL PROLIFERATION (U87 (human glioblastoma); 100 000 nM): 6.00% | PERCENTAGE OF CELL PROLIFERATION ([6]; 0.1 nM): 94.00% | PERCENTAGE OF CELL PROLIFERATION ([6]; 1 nM): 89.00% | PERCENTAGE OF CELL PROLIFERATION ([6]; 10 nM): 59.00% | PERCENTAGE OF CELL PROLIFERATION ([6]; 100 nM): 35.00% | PERCENTAGE OF CELL PROLIFERATION ([6]; 1 000 nM): 15.00% | PERCENTAGE OF CELL PROLIFERATION ([6]; 10 000 nM): 8.00% | PERCENTAGE OF CELL PROLIFERATION ([6]; 100 000 nM): 3.00%
